Measured values as given in patent US8796292B2, “Selective antibacterials for clostridium difficile infections” (GLSynthesis Inc., priority 2009, dated 2014).
Converted amounts (≈) assume the structure as drawn. Read-outs that look alike come from different tables or passages of the source.

Assays:
Assay in all cases: agar dilution MIC assay of anaerobic bacteria
L. casei = format: cell-based, Lactobacillus casei; details: Lacticaseibacillus casei, Micromyx Number 1722, Table 1
Description: (§1) Each compound was assayed against a panel of anaerobic bacteria in culture, consisting of Gram-positive organisms, such as Lactobacilli, Bifidobacteria, Clostridium spp., and Gram-negative bacteria, such as […] fragilis spp., according to guidelines of the Clinical and Laboratory Standards Institute (CLSI document M11-A7, CLSI, Wayne, Pa., 2007). […] One tenth mL of diluted bacteria containing 500-1000 colony-forming units (CFU) was plated and spread, and the plates incubated at 37° C. for 24-48 hours. MIC (minimum inhibitory concentration) is equivalent to the lowest concentration in μg/ml at which growth, i.e., colony formation, is not observed. […] Bacteria were assayed using a reference agar dilution method. Drug dilutions and drug-supplemented agar plates were prepared manually. The test organisms were maintained frozen at −80° C. The isolates were sub-cultured on Supplemented Brucella Agar (SBA) plates in a Bactron II anaerobic chamber and incubated for 48 hours at 35-36° C. in the Bactron II anaerobe chamber. Following inoculation, the drug-supplemented plates were incubated at 35° C. for 48 hours in the anaerobic environment (5% hydrogen, 5% carbon dioxide, 90% nitrogen) of the Bactron II. The MIC in μg/ml was read per Clinical and Laboratory Standards Institute guidelines.

Ba. fragilis = format: cell-based; details: Bacteroides fragilis, Micromyx Number 0123 (ATCC strain)
Description: as §1

L. acidophilus = format: cell-based; details: Lactobacillus acidophilus, Micromyx Number 0681, Table 1
Description: as §1

Bi. brevi = format: cell-based, Bifidobacterium brevi; details: Bifidobacterium; Bi. brevi, Micromyx Number 3967, Table 1
Description: as §1

Bi. longum = format: cell-based, Bifidobacterium longum; details: Bifidobacterium longum; Bi. longum, Micromyx Number 3968, Table 1; read-out: MIC
Description: as §1

E. lentum = format: cell-based, Eubacterium lentum; details: Eggerthella lenta; E. lentum, Micromyx Number 1274, Table 1; read-out: MIC
Description: as §1

C. difficile = format: cell-based, Clostridium difficile; details: for MIC: Clostridioides difficile, read-out: MIC
Description: as §1

[1] = Ba. fragilis, Gram negative, Table 1
[2] = C. difficile, Micromyx Number 1209, Table 1
[3] = C. difficile, Micromyx Number 3579, Table 1
[4] = C. difficile, Micromyx Number 3580, Table 1
[5] = C. difficile, Micromyx Number 3581, Table 1
[6] = C. difficile, Micromyx Number 3582, Table 1
[7] = C. difficile, Micromyx Number 3584, Table 1
[8] = C. difficile, Micromyx Number 3585, Table 1
[9] = C. difficile, Micromyx Number 3586, Table 1
[10] = C. difficile, Micromyx Number 3587, Table 1
[11] = C. difficile, Micromyx Number 3588, Table 1
[12] = C. difficile, Micromyx Number 3589, Table 1
[13] = C. difficile, Micromyx Number 3590, Table 1
[14] = C. difficile, Micromyx Number 3591, Table 1
[15] = C. difficile, Micromyx Number 3593, Table 1
[16] = C. difficile, Micromyx Number 3594, Table 1
[17] = C. difficile, Micromyx Number 3595, Table 1
[18] = C. difficile, Micromyx Number 4381 (ATCC strain), Table 1

Structure (SMILES) | MIC (L. casei) [µg/mL] | MIC (Ba. fragilis; [1]) [µg/mL] | MIC (L. acidophilus) [µg/mL] | MIC (Bi. brevi) [µg/mL] | MIC (Bi. longum) [µg/mL] | MIC (E. lentum) [µg/mL] | MIC (C. difficile; [2]) [µg/mL] | MIC (C. difficile; [3]) [µg/mL] | MIC (C. difficile; [4]) [µg/mL] | MIC (C. difficile; [5]) [µg/mL] | MIC (C. difficile; [6]) [µg/mL] | MIC (C. difficile; [7]) [µg/mL] | MIC (C. difficile; [8]) [µg/mL] | MIC (C. difficile; [9]) [µg/mL] | MIC (C. difficile; [10]) [µg/mL] | MIC (C. difficile; [11]) [µg/mL] | MIC (C. difficile; [12]) [µg/mL] | MIC (C. difficile; [13]) [µg/mL] | MIC (C. difficile; [14]) [µg/mL] | MIC (C. difficile; [15]) [µg/mL] | other results
CCc1cc(Nc2nc3ncn(CCCCCOC)c3c(=O)[nH]2)ccc1C [Compound 315C] | 32 (≈ 86.6 µM) | > 32 | 16 (≈ 43.3 µM) | > 32 | > 32 | > 32 | 16 (≈ 43.3 µM) | 16 (≈ 43.3 µM) | 8 (≈ 21.7 µM) | 8 (≈ 21.7 µM) | > 32 | 8 (≈ 21.7 µM) | 16 (≈ 43.3 µM) | 8 (≈ 21.7 µM) | 8 (≈ 21.7 µM) | 4 (≈ 10.8 µM) | 16 (≈ 43.3 µM) | 8 (≈ 21.7 µM) | 8 (≈ 21.7 µM) | 16 (≈ 43.3 µM) | MIC (C. difficile; [16]): 8 µg/mL (≈ 21.7 µM); MIC (C. difficile; [17]): 8 µg/mL (≈ 21.7 µM); MIC (C. difficile; [18]): 8 µg/mL (≈ 21.7 µM)
CC(C)C(=O)OCCCCCn1cnc2nc(NCc3ccc(Cl)c(Cl)c3)[nH]c(=O)c21 [Compound 332E] | > 32 | > 32 | 8 (≈ 17.2 µM) | 32 (≈ 68.6 µM) | > 32 | 32 (≈ 68.6 µM) | 4 (≈ 8.58 µM) | 4 (≈ 8.58 µM) | 4 (≈ 8.58 µM) | 4 (≈ 8.58 µM) | 16 (≈ 34.3 µM) | 2 (≈ 4.29 µM) | 4 (≈ 8.58 µM) | 2 (≈ 4.29 µM) | 4 (≈ 8.58 µM) | 1 (≈ 2.14 µM) | 4 (≈ 8.58 µM) | 4 (≈ 8.58 µM) | 4 (≈ 8.58 µM) | 4 (≈ 8.58 µM) | MIC (Ba. fragilis; B. fragilis, Table 2): > 32 µg/mL; MIC (C. difficile; C. diff., Micromyx Number 3579, Table 2): 4 µg/mL (≈ 8.58 µM); MIC (C. difficile; C. diff., Micromyx Number 3580, Table 2): 4 µg/mL (≈ 8.58 µM); MIC (C. difficile; C. diff., Micromyx Number 3581, Table 2): 2 µg/mL (≈ 4.29 µM); MIC (C. difficile; C. diff., Micromyx Number 3582 (ATCC strain), Table 2): 4 µg/mL (≈ 8.58 µM); MIC (C. difficile; [16]): 4 µg/mL (≈ 8.58 µM); MIC (C. difficile; [17]): 4 µg/mL (≈ 8.58 µM); MIC (C. difficile; [18]): 2 µg/mL (≈ 4.29 µM); potency and selectivity against C. diff. versus other Gram-positive anaerobes (in words) (C. difficile; summary of MIC panels, Tables 1 and 3): most potent and selective
CCc1cc(Nc2cc(=O)n(CCCCO)c(=O)[nH]2)ccc1C [Compound 179E] | 32 (≈ 101 µM) | > 32 | 32 (≈ 101 µM) | > 32 | > 32 | > 32 | 16 (≈ 50.4 µM) | 16 (≈ 50.4 µM) | 4 (≈ 12.6 µM) | 8 (≈ 25.2 µM) | 16 (≈ 50.4 µM) | 4 (≈ 12.6 µM) | 16 (≈ 50.4 µM) | 4 (≈ 12.6 µM) | 8 (≈ 25.2 µM) | 1 (≈ 3.15 µM) | 16 (≈ 50.4 µM) | 8 (≈ 25.2 µM) | 8 (≈ 25.2 µM) | 16 (≈ 50.4 µM) | MIC (C. difficile; [16]): 4 µg/mL (≈ 12.6 µM); MIC (C. difficile; [17]): 4 µg/mL (≈ 12.6 µM); MIC (C. difficile; [18]): 4 µg/mL (≈ 12.6 µM)
